Columns and labels:
[1] = system: SRS-A synthesis (Rat Peritoneal Cells); experiment: Inhibition of the in vitro synthesis of SRS-A in rat peritoneal cells (ionophore A23187 challenge, guinea pig ileum bioassay); assay type: cell-based, rat (male Sprague-Dawley); settings: for inhibition at 10 µM: p values given
Source text: To study the effect of drugs on SRS-A synthesis in rat peritoneal cells, these cells (including mast cells, monocytes, eosinophils and neutrophils)were isolated from male Sprague-Dawley rats (Charles River Laboratories) weighing 180-220 g by the lavage procedure described by Herzig, D. J. and Kusner, E. J., Journal of Pharmacology and Experimental Therapeutics, 194, 457-462 (1975) with the exception that Hanks balanced salt solution used in these experiments was adjusted to pH 6.9 with 5% (V/V) of 0.1M aqueous phosphate buffer and contained 50 m/gml sodium heparin. After removal from the peritoneal cavity of rats, the cells were subsequently isolated by centrifugation at 400×gravity for 10 minutes at 4° C. and resuspended to a concentration of about 2,000,000 cells per ml in Hanks buffer.
Samples for evaluation were prepared by adding various concentrations of test drugs to 2 ml aliquots of the resuspended cells in Hanks buffer. The 2 ml samples used for control contained 2 ml aliquots of resuspended cells in Hanks buffer without drugs. All of the above samples (2 ml final volume) were preincubated at 37° C. for 10 minutes in the presence of varying concentrations of test drug prior to challenge with 5×10^-7 M ionophore […]. This ionophore is disclosed in Burka and Flower, Br. J. Pharmacology 65: 35-41 (1979). Antibiotic A23187 was used as a probe for the study of calcium and magnesium function in biological systems. After ionophore challenge, SRS-A was synthesized in the samples by the cells for 10 minutes (at 37° C.) after which this synthesis was terminated by placing the samples in a boiling water bath for 10 minutes followed by centrifugation at 2,000×g (10 minutes) at 4° C. to remove coagulated protein and cellular debris. The SRS-A present in the resulting supernatants was quantitated by a bioassay using a guinea pig ileum as described in Orange, and Austen, Adv. Immunol. 10: 105-144 144 (1969). For this bioassay, a 1.5 cm segment of ileum was removed from animals weighing 300 to 400 g and suspended in an organ bath containing 10 ml of Tyrodes solution with 10^-6 M atropine sulfate and 10^-6 M pyrilamine maleate. The bath was maintained at 37° C. and aerated with a mixture of 95% O2 and 5%CO2. The concentration of SRS-A in the experimental samples was determined by a comparison of the isotonic contraction responses elicited by the samples with those obtained with varying amounts of an SRS-A standard solution prepared from chopped guinea pig lung as disclosed in Hitchcock, M. J. Pharmacol. Exp. Ther. 207: 630-640 (1978) and quantituted by the procedures of Orange, R. R. and Austen, K. F. Adv. Immunol. 10: 105-144 (1969) against histamine (1 unit of SRS-A being that amount which gives a contractile response similar to that of […] of histamine). In the absence of drug, the ionophore A23187-induced SRS-A synthesis varied between 40 to 50 units of SRS-A per 10^6 cells. In the presence of increasing concentrations of test drug, there was a concentration-related decrease in SRS-A synthesis. [formula] at each concentration of the various test drugs was calculated. The concentration of test drug which inhibits the synthesis of SRS-A by 50% (IC50) was determined for each test drug from a plot of the mean percent inhibition versus the log of drug concentration. The difference of units of SRS-A in the test sample used in the fraction given above was obtained by subtracting from the units of SRS-A in the control from the actual measurement of the units of SRS-A in the sample.

[2] = biological target: T1, Δ^12-lipoxygenase (Human Platelet) (Homo sapiens, UniProt P18054); experiment: Δ^12-lipoxygenase assay (conversion of 14C-arachidonic acid to 12-HETE, human platelet enzyme); assay type: biochemical; settings: 3-4 μM arachidonic acid
T1 construct: using human platelets as the enzyme source; from tissue; host or cells: human platelets (washed, lysed by freezing and thawing; 100,000×g supernatant, 50% ammonium sulfate precipitate)
T1 sequence (P18054 1-663): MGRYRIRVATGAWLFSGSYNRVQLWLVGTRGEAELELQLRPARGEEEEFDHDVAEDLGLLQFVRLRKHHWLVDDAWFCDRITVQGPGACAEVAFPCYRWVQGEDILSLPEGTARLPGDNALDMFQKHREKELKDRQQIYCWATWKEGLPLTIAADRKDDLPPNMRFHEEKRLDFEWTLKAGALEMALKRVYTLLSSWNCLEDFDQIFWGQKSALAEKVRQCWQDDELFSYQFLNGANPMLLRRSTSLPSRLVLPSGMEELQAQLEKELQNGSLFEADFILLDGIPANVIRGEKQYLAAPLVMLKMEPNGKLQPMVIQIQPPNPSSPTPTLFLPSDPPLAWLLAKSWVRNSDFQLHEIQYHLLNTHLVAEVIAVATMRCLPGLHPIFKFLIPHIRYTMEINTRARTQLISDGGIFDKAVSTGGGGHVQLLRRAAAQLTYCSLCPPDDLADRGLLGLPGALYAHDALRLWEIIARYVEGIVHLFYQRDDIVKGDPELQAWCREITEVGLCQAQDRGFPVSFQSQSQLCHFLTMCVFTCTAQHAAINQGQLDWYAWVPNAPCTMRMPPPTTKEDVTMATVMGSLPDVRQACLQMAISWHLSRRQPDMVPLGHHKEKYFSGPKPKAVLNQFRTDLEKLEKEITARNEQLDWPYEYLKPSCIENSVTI
Protocol: Δ^12 -lipoxygenase activity was measured by following the conversion of ^14 C-arachidonic acid (AA) to ^14 C-12-hydroxy-5,8,10,14-eicosatetraenoic acid (12-HETE) using human platelets as the enzyme source. Washed human platelets from approximately 2000 ml of blood were suspended in 50 ml of phosphate buffered saline (PBS) and then lysed by freezing and thawing (3 times). The platelet lysate was homogenized using a glass-teflon homogenizer and then particulate material was sedimented by centifugation at 100,000×g for 1 hr and the sediment was discarded. The supernatant was made 50% by weight saturated with respect to (NH4)2 SO4 by adding solid ammonium sulfate. The resultant suspension was allowed to stand at 0° overnight. The precipitate was collected by centrifugation and was dissolved in approximately 25 ml of PBS. This solution was the enzyme solution utilized to catalyze the conversion of AA to 12 HETE.
In order to test the compounds, separate incubation tubes for each of the compounds and for concentrations of these compounds were prepared in an ice bath. These tubes each contained 140 μl of PBS containing 1.78 mM glutathione, 10 μl of test drug in ethanol, 50 μl of platelet supernatant, and 50 μl of ^14 C-AA. […] Incubation tubes were prepared containing only buffer ethanol and ^14 c-AA were included as substrate controls. The final concentration of AA added as its ammonium salt in PBS, in each of the incubation tubes 3-4 μM. Sufficient enzyme solution prepared as above was added so that, under the conditions of the assay, approximately 80-90% by weight of the ^14 C-AA was converted to 12-HETE, as determined by prior controls. The tubes were incubated at 37° for 2 min, the reaction was stopped by the addition, while mixing on a mixer, of 2 ml of diethyl ether and 50 μl of 1M citric acid. The ether in the presence of citric acid extracted 12-HETE and AA from enzyme in the reaction medium in each of the samples. The ether extract was evaporated to dryness under nitrogen and then the residue was dissolved in 50 μl of chloroform:methanol (2:1 parts by volume). The dissolved residue containing 12-HETE and AA was applied, as rapidly as possible, to a glass fiber sheet impregnated with silica gel and then the chromatogram was developed using isooctane:methylethylketone:acetic acid (100:9:1 parts by volume) as solvent. Radioactive products and unconverted ^14 C-AA were located using a thin-layer chromatography scanner. The appropriate regions of the chromatogram were cut out, then the radioactivity quantitated using a liquid scintillation counter. The amount of ^14 C-AA converted to product is used as a measure of Δ^12 -lipoxygenase activity.
The mean percent inhibition was calculated by multiplying 100 times the following fraction: [formula] at each concentration of the various test drugs was calculated.

[3] = biological target: T2, Prostaglandin endoperoxide synthase (Ovis aries, UniProt P05979); experiment: Prostaglandin endoperoxide synthase (PES) assay, oxygen uptake with sheep seminal vesicular gland microsomes; assay type: biochemical; settings: 33 μM arachidonic acid, pH 8.5
T2 construct: sheep seminal vesicular gland microsomes (SSVM) as the enzyme source; from tissue; host or cells: sheep seminal vesicular gland microsomes, acetone powder
T2 sequence (P05979 25-600): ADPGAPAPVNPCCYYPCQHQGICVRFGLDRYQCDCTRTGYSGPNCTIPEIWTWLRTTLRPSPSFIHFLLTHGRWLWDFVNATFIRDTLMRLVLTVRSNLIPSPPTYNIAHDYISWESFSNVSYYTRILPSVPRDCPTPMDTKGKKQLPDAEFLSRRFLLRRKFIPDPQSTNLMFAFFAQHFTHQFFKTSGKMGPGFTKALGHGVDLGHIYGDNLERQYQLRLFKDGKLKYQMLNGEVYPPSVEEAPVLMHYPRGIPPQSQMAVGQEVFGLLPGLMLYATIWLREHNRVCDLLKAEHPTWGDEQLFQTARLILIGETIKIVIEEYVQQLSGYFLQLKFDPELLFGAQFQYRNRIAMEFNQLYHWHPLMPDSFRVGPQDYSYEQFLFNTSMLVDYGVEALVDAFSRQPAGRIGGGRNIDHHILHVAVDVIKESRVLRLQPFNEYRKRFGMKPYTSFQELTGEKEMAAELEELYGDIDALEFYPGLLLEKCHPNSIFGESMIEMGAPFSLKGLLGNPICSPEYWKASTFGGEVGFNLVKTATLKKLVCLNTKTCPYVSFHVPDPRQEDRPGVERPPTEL
Protocol: The activity of PES was measured polarigraphically by following the disappearance of dissolved O2 from incubation mixtures containing arachidonic acid (AA) as substrate and sheep seminal vesicular gland microsomes (SSVM) as the enzyme source. Fifty mg of an acetone powder of SSVM were suspended, using a glass teflon homogenizer, in 1 ml of 0.1M tris. HCl (pH, 8.5) containing 0.67 mM phenol. This suspension of SSVM was incubated at room temperature in the presence of phenol to maximumly activate the PES and then the suspension was kept at 0°. Samples in a separate reaction vessel were each prepared by adding tris-phenol buffer (2.8 ml), 0.05 ml of the SSVM suspension, and a maximum of 0.12 ml of ethanol containing various concentrations of the test drug. […] Reaction vessels were then allowed to reach temperature equilibrium. An oxygen electrode is inserted into the vessel and then 24 μl of 4.1 mM AA are injected into the sealed vessel through a port on the side of the electrode. The final concentration of AA is 33 μM. Oxygen uptake is recorded and the initial rate of oxygen uptake used as a measure of PES activity. Each of the test compounds were tested initially at a high concentration (1 mM) and then, if required, dilutions are made. The mean percent inhibition was obtained for each concentration of the various test drugs by expressing as a percent the number obtained by dividing the difference of the oxygen uptake of the test sample by the oxygen uptake of the control. The concentration of test drug which inhibits the synthesis of PES by 50% (IC50) which is given in the following table was determined for each test drug from a plot of mean percent inhibition verses drug concentration. The difference of the oxygen uptake of test sample was obtained by subtracting from the oxygen uptake of the control, the oxygen uptake of the test sample.

[4] = system: SRS-A synthesis (Rat Peritoneal Cells); settings: statement on standard; cited from earlier work
[5] = biological target: T1, Δ^12-lipoxygenase (Human Platelet); settings: statement on standard; cited from earlier work
[6] = biological target: T2, Prostaglandin endoperoxide synthase; settings: statement on standard; cited from earlier work

SMILES | IC50 [1] | IC50 [2] | IC50 [3] | inhibition at 10 µM [1] | inhibition of SRS-A synthesis (in words) [4] | inhibition of Δ^12-lipoxygenase (in words) [5] | inhibition of prostaglandin endoperoxide synthase (in words) [6]
CCCCCC#CCC#CCCCCCCCC(=O)O [9,12-Octadecadiynoic Acid, reference compound] | 3000 nM | ≥ 100 µM | 0.1 to 1 µM | 87 ± 1% | potent standard inhibitor of SRS-A synthesis | not being an inhibitor of Δ^12 lipoxygenase | potent standard inhibitor
CCCCCCCC/C=C\CC#CCC#CCCCC(=O)O [Compound 5, (Z,Z)-11-eicosen-5,8-diynoic acid] | 1000 to 3000 nM | 13 µM | > 100 µM | 100% |  |  | 
CCCCC/C=C\CCCCC#CCC#CCCCC(=O)O [Compound 6, (Z)-14-eicosen-5,8-diynoic acid] | 1000 to 3000 nM | ~100 µM | > 100 µM | 100% |  |  | 
CCCCCC#CCC#CCC#CCC#CCCCC(=O)O [5,8,11,14-Eicosatetraynoic Acid, reference compound] | 3000 to 4000 nM |  | 5 µM | 100% | standard potent inhibitor of SRS-A synthesis | potent inhibitor | potent inhibitor

The next lines start with results.

IC50 [1] | IC50 [2] | IC50 [3] | SMILES | inhibition at 10 µM [1] | inhibition of SRS-A synthesis (in words) [4] | inhibition of Δ^12-lipoxygenase (in words) [5] | inhibition of prostaglandin endoperoxide synthase (in words) [6]
 | 10 to 100 µM | 10 to 100 µM | CCCCC/C=C\C/C=C\CC#CCC#CCCCC(=O)O [Compound 3, (Z,Z)-11,14-eicosadien-5,8-diynoic acid] | 81 ± 6% |  |  | 
< 10000 nM | > 100 µM |  | CCCCC/C=C\CCCCC#CCC#CCCC(F)C1=NC(C)(C)CO1 (stereo not drawn) [Compound 8, 2-(1-fluorononadec-13(Z)-en-4,7-diynyl)-4,5-dihydro-4,4-dimethyloxazole] | 88 ± 6% |  |  | 
< 10000 nM | 10 to 100 µM |  | CCCCC/C=C\C/C=C\CC#CCC#CCCCC(=O)OC [Compound 4, (Z,Z)-11,14-eicosadien-5,8-diynoic acid methyl ester] | 85 ± 8% |  |  | 
< 10000 nM | ~100 µM |  | CCCCC/C=C\CCCCC#CCC#CCCCC1=NC(C)(C)CO1 [Compound 7, 2[(Z)-13-nonadecen-4,7-diynyl]-4,5-dihydro-4,4-dimethyloxazole] | 86 ± 8% |  |  | 

From US4642364A, “Unsaturated eicosanoic acids” (Hoffmann-La Roche Inc., priority 1986, dated 1987)
